Source: patent US9295732B2, “Conjugated TLR7 and/or TLR8 and TLR2 polycationic agonists” (CAYLA, priority 2013, dated 2016)
Where “and” joins values, the source holds several entries; their conditions need not be identical. Identical values can stand only once.

Tests used:
[1] = biological target: T1, murine TLR7 (Mus musculus, UniProt P58681); assay: HEK-Blue mTLR7 NF-κB/AP-1 SEAP reporter assay; format: cell-based; conditions: HEK-Blue mTLR7 cells, 10 μg/mL to 10 pg/ml, 24 hours, OD at 655 nm, FIG. 2
T1 construct: host or cells: HEK293 (HEK-Blue™ mTLR7)
T1 sequence (P58681 27-1050): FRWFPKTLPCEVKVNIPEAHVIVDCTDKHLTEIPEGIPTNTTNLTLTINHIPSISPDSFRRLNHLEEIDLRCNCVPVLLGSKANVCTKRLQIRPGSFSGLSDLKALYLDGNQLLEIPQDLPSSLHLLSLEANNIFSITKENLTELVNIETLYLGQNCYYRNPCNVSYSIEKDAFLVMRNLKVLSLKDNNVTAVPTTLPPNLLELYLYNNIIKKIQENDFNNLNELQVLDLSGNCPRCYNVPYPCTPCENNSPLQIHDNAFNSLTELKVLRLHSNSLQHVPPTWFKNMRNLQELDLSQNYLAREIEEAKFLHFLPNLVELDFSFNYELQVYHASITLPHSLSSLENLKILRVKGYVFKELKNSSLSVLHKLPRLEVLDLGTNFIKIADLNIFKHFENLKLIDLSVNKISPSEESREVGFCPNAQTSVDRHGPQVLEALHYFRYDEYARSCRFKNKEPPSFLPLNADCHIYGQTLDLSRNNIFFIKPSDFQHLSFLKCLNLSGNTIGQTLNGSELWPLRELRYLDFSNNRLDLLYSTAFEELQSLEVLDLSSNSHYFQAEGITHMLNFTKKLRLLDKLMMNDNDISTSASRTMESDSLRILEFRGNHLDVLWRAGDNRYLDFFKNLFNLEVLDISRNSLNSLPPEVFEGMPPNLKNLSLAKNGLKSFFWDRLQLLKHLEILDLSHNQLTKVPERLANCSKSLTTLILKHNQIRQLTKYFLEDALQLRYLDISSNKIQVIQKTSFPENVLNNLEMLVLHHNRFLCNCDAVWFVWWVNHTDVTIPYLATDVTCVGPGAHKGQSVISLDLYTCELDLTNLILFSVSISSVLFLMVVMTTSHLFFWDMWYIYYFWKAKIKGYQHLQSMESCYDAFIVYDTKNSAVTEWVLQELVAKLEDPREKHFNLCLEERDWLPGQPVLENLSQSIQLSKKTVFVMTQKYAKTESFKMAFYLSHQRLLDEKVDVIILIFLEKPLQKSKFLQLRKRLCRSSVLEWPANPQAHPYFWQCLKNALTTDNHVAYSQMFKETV
In short: (§1)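 HEK293 cells stably expressing the given TLR, or RAW 264.7-derived cells (50,000 or 100,000 cells/well respectively), carry an NF-κB/AP-1-inducible SEAP reporter. Conjugated TLR7-TLR2 agonists at final 10 μg/mL to 10 pg/ml, 24 h at 37° C. SEAP read colorimetrically as OD at 655 nm in detection medium.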

[2] = tested on: endogenous TLR2 and TLR7 in RAW-Blue™ Cells; assay: RAW-Blue Cells NF-κB/AP-1 SEAP reporter assay; format: cell-based, mouse; conditions: 24 hours, OD at 655 nm, FIG. 4
In short: as §1

[3] = tested on: plasmid DNA (pDNA); assay: Gel shift (mobility shift) assay of pDNA complexation; format: binding; conditions: pDNA:molecule ratio 3:24 (w:w), 0.8% agarose gel, compared to pDNA alone
In short: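 Complexes of pDNA with TLR7-TLR2 polyamine molecules run on 0.8% agarose in TAE at 135 V for 21 min, ethidium bromide stained and viewed under UV. Complexation scored as partial or complete retardation of pDNA migration versus pDNA alone, complexed pDNA appearing as a smear in wells.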

[4] = tested on: HEK293 cells; assay: Cell transfection with SEAP plasmid, HEK293; format: cell-based, human; conditions: in complex with pVitro14 LGFP SEAP plasmid, 48 hours, SEAP expression; FIG. 5A
Method: The TLR7-TLR2 molecules were tested for their ability as polyamine molecules to transport plasmid DNA (pDNA) into cells. The pVitro14 LGFP SEAP plasmid (InvivoGen) was complexed to TLR7-TLR2 polyamine molecules and to the control cationic lipid transfection agent, LyoVec™ (InvivoGen). The human HEK293 (ATCC, CRL-1573) and mouse B16-F1 melanoma (ATCC, CRL-6323) cell lines were seeded at a density of 50 000 cells/well and 20 000 cells/well respectively, in the absence or presence of different volumes of the plasmid encoding for the SEAP protein in complex with TLR7-TLR2 polyamine molecules for 48 hours at 37° C. and 10% CO2. Transfection efficiency was assessed by measuring SEAP reporter gene expression: 20 μl of supernatant was sampled and mixed with 180 μl of QUANTI-Blue™ Detection (InvivoGen). In the presence of alkaline phosphatase SEAP, the color of QUANTI-Blue™ changes from pink to purple/blue. The intensity of the blue hue reflects the activity of SEAP. The levels of SEAP secretion were determined quantitatively by reading the OD at 620-655 nm using a spectrophotometer, iMark™ Microplate Reader (BIO-RAD).

[5] = Nanoparticle (lipoplex) size by dynamic light scattering; conditions: 25° C., triplicate; for Mean Diameter: complexes with pDNA 3:24 (w:w), dynamic light scattering; for PDI: polydispersity index of complexes with pDNA 3:24 (w:w);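 for all read-outs here: lipoplexes of TLR7-TLR2 polyamine conjugates with plasmid DNA, formed over 30 min at room temperature in serum-free medium or 5% glucose, diameter in nm, PDI dimensionless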

| Compound | ability to activate mTLR7 [1] | ability to activate endogenous TLR2 and TLR7 in RAW-Blue Cells [2] | ability to complex pDNA (retardation of pDNA migration in agarose gel) [3] | ability to transfect HEK293 cells [4] | Mean Diameter [5] | PDI [5] |
| --- | --- | --- | --- | --- | --- | --- |
| CCCCCCCCCCCCCCCC(=O)OCC(CSC[C@H](N)C(=O)N[C@@H](COC(=O)c1ccc(Cn2c(O)nc3c(N)nc(NCCCC)nc32)cc1)C(=O)NCCCNCCCCNCCCN)OC(=O)CCCCCCCCCCCCCCC (stereo partly drawn) [CL514, (6R,9S)-6,23-diamino-9-((4-((6-amino-2-(butylamino)-8-hydroxy-9H-purin-9-yl)methyl)benzoyloxy)methyl)-7,10-dioxo-4-thia-8,11,15,20-tetraazatricosane-1,2-diyl dipalmitate] | activate mTLR7 | activate endogenous TLR2 and TLR7 | inability to migrate through an agarose gel | transfect HEK293 cells | 249.1 nm and 309.6 nm and 258.3 nm | 0.303 and 0.354 and 0.372 |
| (6S,9S,12S,15S,18S,21R)-6,25-diamino-21-(4-((6-amino-2-(butylamino)-8-hydroxy-9H-purin-9-yl)methyl)phenylcarbamoyl)-12,15,18-tris(4-aminobutyl)-9-(hydroxyl methyl)-7,10,13,16,19-pentaoxo-4-thia-8,11,14,17,20-pentaazapentacosane-1,2-diyl dipalmitate [CL413] | activate mTLR7 | activate endogenous TLR2 and TLR7 | inability to migrate through an agarose gel | lack the ability to transfect cells | – | – |
| CCCCCCCCCCCCCCCC(=O)OCC(CSC[C@H](N)C(=O)NCCCNCCCCNCCCNC(=O)CNC(=O)c1ccc(Cn2c(O)nc3c(N)nc(NCCCC)nc32)cc1)OC(=O)CCCCCCCCCCCCCCC (stereo partly drawn) [CL553, (20R)-20-amino-1-(4-((6-amino-2-(butylamino)-8-hydroxy-9H-purin-9-yl)methyl)phenyl)-1,4,19-trioxo-22-thia-2,5,9,14,18-pentaazapentacosane-24,25-diyl dipalmitate] | activate mTLR7 | activate endogenous TLR2 and TLR7 | inability to migrate through an agarose gel | transfect HEK293 cells | 170.0 nm and 190.0 nm and 180.2 nm | 0.226 and 0.230 and 0.237 |
| CCCCCCCCCCCCCCCC(=O)N[C@@H](CSCC(COC(=O)CCCCCCCCCCCCCCC)OC(=O)CCCCCCCCCCCCCCC)C(=O)N[C@@H](CO)C(=O)N[C@@H](CCCCN)C(=O)N[C@@H](CCCCN)C(=O)N[C@@H](CCCCN)C(=O)N[C@@H](CCCCN)C(=O)Nc1ccc(Cn2c(O)nc3c(N)nc(NCCCC)nc32)cc1 (stereo partly drawn) [CL534, ((6R,9S,12S,15S,18S,21S)-25-amino-21-(4-((6-amino-2-(butylamino)-8-hydroxy-9H-purin-9-yl)methyl)phenylcarbamoyl)-12,15,18-tris(4-aminobutyl)-9-(hydroxylmethyl)-7,10,13,16,19-pentaoxo-6-palmitamido-4-thia-8,11,14,17,20-pentaazapentacosane-1,2-diyl dipalmitate] | activate mTLR7 | activate endogenous TLR2 and TLR7 | inability to migrate through an agarose gel | lack the ability to transfect cells | – | – |
| CCCCCCCCCCCCCCCC(=O)OCC(CSC[C@H](N)C(=O)N[C@@H](CCC(=O)NCCCNCCCCNCCCN)C(=O)Nc1ccc(Cn2c(O)nc3c(N)nc(NCCCC)nc32)cc1)OC(=O)CCCCCCCCCCCCCCC (stereo partly drawn) [CL527, (6R,9S)-6,25-diamino-9-(4-((6-amino-2-(butylamino)-8-hydroxy-9H-purin-9-yl)methyl)phenylcarbamoyl)-7,12-dioxo-4-thia-8,13,17,22-tetraazapentacosane-1,2-diyl dipalmitate] | activate mTLR7 | activate endogenous TLR2 and TLR7 | inability to migrate through an agarose gel | transfect HEK293 cells | 175.1 nm and 156.9 nm and 168.3 nm | 0.253 and 0.239 and 0.258 |
